Activity calls are given as the source filed them. The calls are words filed in the database; no cut-off is given here.
Legend:
Staphylococcus aureus [1] = experiment: (§1) Inhibition of Staphylococcus aureus ClpXP using ssrA degradation tagged fluorescent GFP substrate in presence of ATP regeneration system pre-incubation for 15 mins before substrate addition by fluorescence assay
[2] = as §1
[3] = target: T1, ATP-dependent Clp protease proteolytic subunit (Staphylococcus aureus (strain NCTC 8325)) (UniProt Q2G036); experiment: Inhibition of Staphylococcus aureus ClpP using ssrA degradation tagged fluorescent GFP substrate in presence of ATP regeneration system pre-incubation for 15 mins before substrate addition by fluorescence assay
T1 sequence (whole entry): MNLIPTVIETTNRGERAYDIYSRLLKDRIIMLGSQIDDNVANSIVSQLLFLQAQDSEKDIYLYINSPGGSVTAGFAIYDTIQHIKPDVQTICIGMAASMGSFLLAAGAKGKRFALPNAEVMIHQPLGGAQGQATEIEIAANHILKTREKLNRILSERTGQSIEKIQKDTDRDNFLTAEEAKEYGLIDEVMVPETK

Staphylococcus aureus [4] = experiment: Inhibition of Staphylococcus aureus ClpCP at 100 uM using ssrA degradation tagged fluorescent GFP substrate in presence of ATP regeneration system pre-incubation for 15 mins before substrate addition by fluorescence assay
[5] = Inhibition of Staphylococcus aureus ClpPX assessed as reduction in ATP hydrolysis incubated for 2 to 14 mins by malachite green assay
Homo sapiens [6] = species: Homo sapiens; experiment: Inhibition of human ClpXP at 1 to 100 uM preincubated for 15 mins before FITC-labeled casein substrate addition in presence of ATP regeneration mix and creatine kinase
K562 = experiment: Cytotoxicity against human K562 cells assessed as reduction in cell viability up to 100 uM incubated for 72 hrs by cell-titer blue reagent based assay; assay type: functional
Homo sapiens [7] = species: Homo sapiens; experiment: Cytotoxicity against human S-Jurkat cells assessed as reduction in cell viability up to 120 uM incubated for 72 hrs by cell-titer blue reagent based assay; assay type: functional
CCRF-CEM = experiment: Cytotoxicity against human CCRF-CEM cells assessed as reduction in cell viability up to 120 uM incubated for 72 hrs by cell-titer blue reagent based assay; assay type: functional
A549 = experiment: Cytotoxicity against human A549 cells assessed as reduction in residual metabolic activity at 1 to 50 uM incubated for 24 hrs by MTT assay; assay type: functional, cell-based
Staphylococcus aureus [8] = experiment: Inhibition of Staphylococcus aureus ClpXP using ssrA degradation tagged fluorescent GFP substrate in presence of ATP regeneration system pre-incubation for 15 mins before substrate addition by fluorescence assay relative to control
Staphylococcus aureus [9] = experiment: Binding affinity to Staphylococcus aureus ClpXP assessed as induction of collapse of ClpXP proteolytic complex
[10] = (§2) Inhibition of ClpXP in Staphylococcus aureus NCTC 8325 assessed as reduction in extracellular proteolytic activity by measuring hemolysis of sheep erythrocytes exposed to supernatants of 20 hrs compound pre-treated Staphylococcus aureus
Staphylococcus aureus [11] = experiment: as §2
Staphylococcus aureus [12] = experiment: Inhibition of ClpXP in Staphylococcus aureus NCTC 8325 assessed as reduction in extracellular proteolytic activity by measuring overall proteolysis of sheep erythrocytes exposed to supernatants of 20 hrs 0.1 to 30 nmol compound pre-treated Staphylococcus aureus
Staphylococcus aureus [13] = experiment: Suppression of virulence factors in Staphylococcus aureus NCTC 8325 assessed as reduction in gamma hemolysin-C protein expression; assay type: functional, organism-based
Staphylococcus aureus [14] = experiment: Suppression of virulence factors in Staphylococcus aureus NCTC 8325 assessed as reduction in serine protease A expression; assay type: functional, organism-based
Staphylococcus aureus [15] = experiment: Suppression of virulence factors in Staphylococcus aureus NCTC 8325 assessed as reduction in serine protease B expression; assay type: functional, organism-based
Staphylococcus aureus [16] = experiment: Suppression of virulence factors in Staphylococcus aureus NCTC 8325 assessed as reduction in serine protease C expression; assay type: functional, organism-based
Staphylococcus aureus [17] = experiment: Suppression of virulence factors in Staphylococcus aureus NCTC 8325 assessed as reduction in serine protease D expression; assay type: functional, organism-based
Staphylococcus aureus [18] = experiment: Suppression of virulence factors in Staphylococcus aureus NCTC 8325 assessed as reduction in serine protease E expression; assay type: functional, organism-based
Staphylococcus aureus [19] = experiment: Suppression of virulence factors in Staphylococcus aureus NCTC 8325 assessed as reduction in serine protease F expression; assay type: functional, organism-based
Staphylococcus aureus [20] = experiment: Suppression of virulence factors in Staphylococcus aureus NCTC 8325 assessed as reduction in staphopain-A expression; assay type: functional, organism-based
[21] = Half life in mouse plasma at 100 uM by HPLC and MS analysis; assay type: ADME, cell-free
Staphylococcus aureus [22] = experiment: Binding affinity to Staphylococcus aureus ClpPX assessed as induction of covalent modification a 100 um incubated for 60 mins by intact mass spectrometry

## C#CCNC(=O)c1ccc2c(c1)C1=C(C2=O)C(c2cccc(OC)c2)Sc2ccccc2N1 (stereo not drawn)
Staphylococcus aureus [1]
  inhibition (active/not active): Active

## COc1ccc(-n2ccnc(SCC(=O)Nc3cc(OC)cc(OC)c3)c2=O)cc1
[2]
  IC50: 2200 nM
[3]
  inhibition: inactive
Staphylococcus aureus [4]
  inhibition: inactive

## O=C1C2=C(Nc3ccccc3SC2c2cccs2)c2ccccc21 (stereo not drawn)
[2]
  IC50: 2500 nM
[3]
  inhibition: inactive
[5]
  IC50: 1600 to 2400 nM
Homo sapiens [6]
  inhibition: Active
K562
  Activity: Active
Homo sapiens [7]
  Activity: Active
CCRF-CEM
  Activity: Active
Staphylococcus aureus [4]
  inhibition: inactive

## O=C1C2=C(Nc3ccccc3SC2c2cccc(F)c2)c2ccccc21 (stereo not drawn)
Staphylococcus aureus [1]
  inhibition (active/not active): Active

## O=C1C2=C(Nc3ccccc3SC2c2cccnc2)c2ccccc21 (stereo not drawn)
Staphylococcus aureus [1]
  inhibition (active/not active): inactive

## N#CC1=C(N)Oc2[nH]nc(-c3ccc(Br)cc3)c2C1c1ccc(OC(=O)c2ccco2)cc1 (stereo not drawn)
[2]
  IC50: 3100 nM
[3]
  inhibition: inactive
Staphylococcus aureus [4]
  inhibition: inactive

## C#CCNC(=O)c1ccc2c(c1)C(=O)C1=C2Nc2ccccc2SC1c1cccc(OC)c1 (stereo not drawn)
Staphylococcus aureus [1]
  inhibition (active/not active): Active

## C#CCCCCOc1cc(O)cc(C2Sc3ccccc3NC3=C2C(=O)c2ccccc23)c1 (stereo not drawn)
Staphylococcus aureus [1]
  inhibition (active/not active): Active

## O=C1C2=C(Nc3ccccc3S(=O)(=O)C2c2ccc(-c3ccccc3)cc2)c2ccccc21 (stereo not drawn)
Staphylococcus aureus [1]
  inhibition (active/not active): Active

## O=C1C2=C(Nc3ccccc3SC2c2ccc(-c3ccccc3)cc2)c2ccccc21 (stereo not drawn)
Staphylococcus aureus [1]
  inhibition (active/not active): Active

## C#CCNC(=O)c1ccc2c(c1)C(=O)C1=C2Nc2ccccc2SC1c1cccc(O)c1 (stereo not drawn)
Staphylococcus aureus [1]
  inhibition (active/not active): Active

## O=C1C2=C(Nc3ccccc3SC2c2ccc(F)cc2)c2ccccc21 (stereo not drawn)
Staphylococcus aureus [1]
  inhibition (active/not active): Active

## Cc1ccc(NC(=O)Cc2ccc(NC(=O)N3CCCCc4ccccc43)cc2)cc1C
[2]
  IC50: 1600 nM
[3]
  inhibition: inactive
Staphylococcus aureus [4]
  inhibition: inactive

## O=C1C2=C(Nc3ccccc3SC2c2ccccc2)c2ccccc21 (stereo not drawn)
Staphylococcus aureus [1]
  inhibition (active/not active): Active

## O=C1C2=C(Nc3ccccc3SC2c2ccc(C(F)(F)F)cc2)c2ccccc21 (stereo not drawn)
Staphylococcus aureus [1]
  inhibition (active/not active): Active

## O=C1C2=C(Nc3ccccc3SC2c2cc(O)cc(O)c2)c2ccccc21 (stereo not drawn)
Staphylococcus aureus [1]
  inhibition (active/not active): Active

## C#CCNC(=O)c1ccc2c(c1)C1=C(C2=O)C(c2cccc(O)c2)Sc2ccccc2N1 (stereo not drawn)
Staphylococcus aureus [1]
  inhibition (active/not active): Active

## O=C1C2=C(Nc3ccccc3S(=O)(=O)C2c2cccc(O)c2)c2ccccc21 (stereo not drawn)
Staphylococcus aureus [1]
  inhibition (active/not active): Active
A549
  Activity: inactive

## O=C1C2=C(Nc3ccccc3SC2c2cccc(O)c2)c2cc(Cl)c(Cl)cc21 (stereo not drawn)
Staphylococcus aureus [1]
  inhibition (active/not active): Active

## COC(=O)c1ccc(OC(=O)CCc2cc(OC)c(OC)c(OC)c2)cc1
Staphylococcus aureus [4]
  inhibition: inactive

## COc1cccc(C2C3=C(Nc4ccccc4S2(=O)=O)c2ccccc2C3=O)c1 (stereo not drawn)
Staphylococcus aureus [1]
  inhibition (active/not active): Active

## N#CC1=C(N)Oc2cc3c(cc2C1c1ccc(OCc2ccc(F)cc2)cc1)OCO3 (stereo not drawn)
[2]
  IC50: 600 nM
[3]
  inhibition: inactive
Staphylococcus aureus [4]
  inhibition: inactive

## O=C1C2=C(Nc3ccccc3SC2c2cccc(CO)c2)c2ccccc21 (stereo not drawn)
Staphylococcus aureus [1]
  inhibition (active/not active): Active
A549
  Activity: inactive

## COc1cc(O)cc(C2Sc3ccccc3NC3=C2C(=O)c2ccccc23)c1 (stereo not drawn)
Staphylococcus aureus [1]
  inhibition (active/not active): Active

## CC(=O)Oc1ccc(C2Sc3ccccc3NC3=C2C(=O)c2ccccc23)cc1 (stereo not drawn)
Staphylococcus aureus [1]
  inhibition (active/not active): Active
Staphylococcus aureus [8]
  inhibition: 35%

## C#Cc1ccc2c(c1)C(=O)C1=C2Nc2ccccc2SC1c1cc(O)cc(N=[N+]=[N-])c1 (stereo not drawn)
Staphylococcus aureus [1]
  inhibition (active/not active): Active

## C#Cc1ccc2c(c1)C(=O)C1=C2Nc2ccccc2SC1c1cccc(O)c1 (stereo not drawn)
Staphylococcus aureus [1]
  inhibition (active/not active): Active

## O=C1C2=C(Nc3ccccc3NC2c2ccccc2)c2ccccc21 (stereo not drawn)
Staphylococcus aureus [1]
  inhibition (active/not active): Active

## Nc1cccc(C2Sc3ccccc3NC3=C2C(=O)c2ccccc23)c1 (stereo not drawn)
Staphylococcus aureus [1]
  inhibition (active/not active): Active

## O=C1C2=C(Nc3ccccc3SC2c2ccc(O)cc2)c2ccccc21 (stereo not drawn)
Staphylococcus aureus [1]
  inhibition (active/not active): Active

## C#Cc1ccc2c(c1)C1=C(C2=O)C(c2cc(O)cc(N=[N+]=[N-])c2)Sc2ccccc2N1 (stereo not drawn)
Staphylococcus aureus [1]
  inhibition (active/not active): Active

## O=C1C2=C(Nc3ccccc3S(=O)(=O)C2c2ccc(F)cc2)c2ccccc21 (stereo not drawn)
Staphylococcus aureus [1]
  inhibition (active/not active): Active

## O=C(O)c1ccc(C2Sc3ccccc3NC3=C2C(=O)c2ccccc23)cc1 (stereo not drawn)
Staphylococcus aureus [1]
  inhibition (active/not active): inactive

## O=C1C2=C(Nc3ccccc3SC2c2ccccc2O)c2ccccc21 (stereo not drawn)
Staphylococcus aureus [1]
  inhibition (active/not active): inactive

## C#Cc1ccc2c(c1)C1=C(C2=O)C(c2cccc(O)c2)Sc2ccccc2N1 (stereo not drawn)
Staphylococcus aureus [1]
  inhibition (active/not active): Active

## COc1ccc2c(c1)SC(c1cccc(O)c1)C1=C(N2)c2ccccc2C1=O (stereo not drawn)
Staphylococcus aureus [1]
  inhibition (active/not active): Active

## COc1cccc(C2Sc3ccccc3NC3=C2C(=O)c2ccccc23)c1 (stereo not drawn)
Staphylococcus aureus [1]
  inhibition (active/not active): Active

## O=C1C2=C(Nc3ccccc3SC2c2cc(O)cc(Br)c2)c2ccccc21 (stereo not drawn)
Staphylococcus aureus [1]
  inhibition (active/not active): Active

## O=C1C2=C(Nc3ccccc3S(=O)(=O)C2c2ccc(C(F)(F)F)cc2)c2ccccc21 (stereo not drawn)
Staphylococcus aureus [1]
  inhibition (active/not active): Active

## O=C1C2=C(Nc3ccccc3SC2c2cccc(O)c2)c2ccccc21 (stereo not drawn)
[2]
  IC50: 1500 nM
[3]
  inhibition: inactive
[5]
  IC50: 1600 to 2400 nM
Staphylococcus aureus [9]
  Activity: Active
Staphylococcus aureus [8]
  inhibition: 100%
[10]
  IC50: 3000 nM
Staphylococcus aureus [11]
  inhibition: Dose-dependent effect
Staphylococcus aureus [12]
  inhibition: Active
Staphylococcus aureus [13]
  Activity: Dose-dependent effect
  EC50: 3000 nM
Staphylococcus aureus [14]
  Activity: Dose-dependent effect
  EC50: 3000 nM
Staphylococcus aureus [15]
  Activity: Dose-dependent effect
  EC50: 3000 nM
Staphylococcus aureus [16]
  Activity: Dose-dependent effect
  EC50: 3000 nM
Staphylococcus aureus [17]
  Activity: Dose-dependent effect
  EC50: 3000 nM
Staphylococcus aureus [18]
  Activity: Dose-dependent effect
  EC50: 3000 nM
Staphylococcus aureus [19]
  Activity: Dose-dependent effect
  EC50: 3000 nM
Staphylococcus aureus [20]
  Activity: Dose-dependent effect
  EC50: 3000 nM
Homo sapiens [6]
  inhibition: Active
[21]
  half-life at 100 µM: > 240 min
K562
  Activity: Active
Homo sapiens [7]
  Activity: Active
CCRF-CEM
  Activity: Active
Staphylococcus aureus [4]
  inhibition: inactive
Staphylococcus aureus [22]
  Activity: inactive

Reference: ChEMBL document CHEMBL4482325, “Clpx inhibitory compounds for the treatment of multi resistant staphylococcus aureus virulence and for the treatment of leukemia” (2018)
